# Data: patent US20250204535A1, “Rodenticide” (priority 2022, published 2025)
# Marks after values point to notes of the source that are not given here.
# What was measured:
# [1] = dogs; study of 2020 (Seljetun et al); cited from earlier work
# [2] = system: Caco-2 cells; experiment: Caco-2 permeability assay (bi-directional); conditions: positive control
# Description: Cells were seeded on to Millipore Multiscreen Transwell plates at 1×10^5 cells/cm^2. The cells were cultured in DMEM and media was changed every two or three days. On day 20, the permeability study was performed. […] On the day of the assay, the monolayers were prepared by rinsing both basolateral and apical surfaces twice with Hanks Balanced Salt Solution (HBSS) at the desired pH warmed to 37° C. Cells were then incubated with HBSS at the desired pH in both apical and basolateral compartments for 40 min to stabilise physiological parameters.
# The fluorescent integrity marker lucifer yellow was also included in the dosing solution. Analytical standards were prepared from test compound water dilutions and transferred to buffer, maintaining a ≤1% v/v water concentration. Assay buffer was composed of supplemented HBSS pH 7.4.
# For assessment of apical to basolateral (A2B) permeability, HBSS was removed from the apical compartment and replaced with test compound dosing solution. The apical compartment insert was then placed into a companion plate containing fresh buffer (containing ≤1% v/v Water). For assessment of B2A permeability, HBSS was removed from the companion plate and replaced with test compound dosing solution. Fresh buffer (containing ≤1% v/v Water) was added to the apical compartment insert, which was then placed into the companion plate.
# At 120 min, the apical compartment inserts and the companion plates were separated, and apical and basolateral samples diluted for analysis. Test compound permeability was assessed in duplicate. Compounds of known permeability characteristics were run as controls on each assay plate.
# Test and control compounds were quantified by LC-MS/MS cassette analysis using a 7-point calibration with appropriate dilution of the samples. Cyprotex generic analytical conditions were used. The starting concentration (CO) was determined from the dosing solution and the experimental recovery calculated from CO and both apical and basolateral compartment concentrations.
# The integrity of the polarised cell monolayers throughout the experiment was checked by monitoring lucifer yellow permeation using fluorometric analysis. Permeation of this paracellular marker is low if monolayers have not been damaged. […] If this was not the case, then the result from the affected monolayer was excluded.
# The determined concentration (nM≡pmol/mL) of each test sample receiver well is multiplied by the volume of the receiver compartment (apical=0.09 mL, basolateral=0.210 mL) to calculate the amount (pmol) of probe substrate permeating the monolayer.
# Where dQ/dt is the rate of permeation of the drug across the cells, C0 is the donor compartment concentration at time zero and A is the area of the cell monolayer. C0 was obtained from analysis of the dosing solution.
# An efflux ratio (ER) was calculated from mean A to B and B to A data. This is derived from:
# Percentage recovery (mass balance) of the test compound or positive control substrate was calculated by dividing the sum of the amount (pmol) in the receiver and donor compartments post-incubation by the amount in the initial donor solution at time zero (C0) and expressing as a percentage.
# The insert was inserted into the well of a plate to form an Apical chamber (above cells) and basolateral chamber (below cells), with a permeable membrane between the two layers. Compound was then added to either the apical or basolateral chamber and the passage of it monitored into the other chamber. Transfer of the test compound from the apical to basolateral chamber was indicative of cellular uptake, simulating transition of the compound from the intestinal lumen to the bloodstream by uptake receptors (Direction A). […] An Efflux ratio was then calculated from the values obtained for A2B and B2A transmission.
# [3] = system: Neonatal rat cardiomyocytes; experiment: Screening purified venom fractions for rat cardiomyocyte toxicity (resazurin); type: cell-based
# Description: (§1) Hearts were collected from euthanised 1-2-day old neonatal rat pups and transferred into filter sterilised ice-cold Hanks balanced salt solution (HBSS) containing 2% Pen-strep. Hearts were washed in the HBSS, any non-heart tissue removed and then cut into 1-3 mm pieces and placed in 40 ml filter sterilised, ice cold 0.1% trypsin/HBSS. The heart pieces in trypsin were place in a large ice bucket and incubated overnight at 4° C. on a rocker with gentle agitation to allow the tissue to digest.
# The following day, all trypsin was aspirated from the tissue and the tissue transferred evenly into 2 ml Eppendorf tubes. The tissue was then digested further using a 37° C. 1 mg/ml collagenase/HBSS (filter sterilised) solution. […]
# (§2) Neonatal rat cardiomyocytes and cardiac fibroblasts were treated with purified venom fractions suspected of being cardiotoxins at doses of 12.5, 7.5, 6 μg/ml, with rat cardiomyocytes being treated at additional concentrations of 3.5, 2.5, 1 and 0.5 μg/ml for 2 hs in a humidified incubator at 37° C., 5% CO2. […] The change in fluorescence of the resazurin dye was monitored over a 5 h timeframe using a BMG Fluostar plate reader. Percent inhibition of both cell types in response to each fraction at each dose were calculated and plotted graphically.
# [4] = system: neonatal rat cardiac fibroblast cells; experiment: Screening purified venom fractions for rat cardiac fibroblast toxicity (resazurin); type: cell-based
# Description: as §1
# The following day, all trypsin was aspirated from the tissue and the tissue transferred evenly into 2 ml Eppendorf tubes. The tissue was then digested further using a 37° C. 1 mg/ml collagenase/HBSS (filter sterilised) solution. For each collagenase digestion, 2 ml of enzyme buffer was added to all Eppendorf tubes and the tubes incubated in a 37° C. heating block for 2 mins with 400 rpm agitation. The supernatant from the first two digestions was discarded. After each of the following digestion steps, the tissue was gently triturated using a pipette to release cells. Once trituration was complete the supernatant was retained, added to a tube containing 10 ml cell culture media and stored on ice.
# All cell containing supernatants were filtered through a 250 μm cell strainer to remove any potentially undigested tissue and myocytes separated from cardiac fibroblast by spinning the supernatant at 1800 g for 45 mins through a Percoll gradient. […]
# as §2
# [5] = system: Human IPSC-derived cardiomyocytes; experiment: Six lead fractions: toxicity to human IPSC-derived cardiomyocytes (resazurin); type: cell-based; conditions: for cytotoxicity against human IPSC-derived cardiomyocytes: 7.5, 6, 3.5, 2.5 and 1 μg/ml, 2 h, FIG. 3
# Description: Human IPSC-derived cardiomyocytes were purchased from Axol Biosciences and cultured as via their standard methodology. Briefly, cells were recovered from liquid nitrogen storage when required and the cells transferred dropwise into 10 ml of pre-warmed (37° C.) plating media (cardiomyocyte maintenance media+10% FCS+10 μM ROCK inhibitor). Cells were centrifuged at 200×g for 5 mins at room temperature. The supernatant was aspirated from the cell pellet and the cell pellet gently resuspended in 1 ml plating media. Cells were counted using a haemocytometer and trypan blue staining. Cells were plated at a seeding density of 10-20,000 cells/well in fibronectin pre-coated 384 well plates. Cells were incubated at 37° C., 5% CO2 in a humidified incubator overnight before the plating media was removed the following day and replace with fresh maintenance media (No FCS, no ROCK inhibitor). Partial media changes were performed every 2-days until cells formed a single continuous sheet of spontaneously beating cardiomyocytes (7-10 day in culture).
# Once beating spontaneously, cells were treated with the six lead fractions diluted in maintenance media to final working concentrations of 7.5, 6, 3.5, 2.5 and 1 μg/ml. 30 μl of each fraction dilution was added to triplicate wells of cells and incubated for 2 h at 37° C., 5% CO2 in a humidified incubator. After 2 h, resazurin dye at a final working concentration of 160 μM were added to all wells and the change in fluorescence of the plate monitored over a 5 h timeframe using a BMG Labtech Fluostar plate reader. Percent toxicity was calculated from triplicate wells at each dose and plotted graphically.
# Human IPSC derived cardiomyocytes were dosed in triplicate with a serial dilution of each of the six venom fractions (7.5, 6, 3.5, 2.5 and 1 μg/ml) for 2 hs at 37° C., 5% CO2 before resazurin dye was added and the change in colour and fluorescence monitored for the following 5 hrs. Percentage toxicity was calculated for each fraction at all doses and plotted graphically (FIG. 3).
# [6] = system: rat neonatal cardiomyocyte cells; type: cell-based; conditions: 6 μg/ml, rat cardiomyocytes
# Description: Thermal stability of the six lead fractions was investigated. Aliquots of each fraction were heated in a heat block to 37° C. (unheated), 60° C., 80° C. and 100° C. before being used to treat rat neonatal cardiomyocyte cells at a dose of 6 μg/ml. Cardiomyocyte toxicity was assessed after 24 hrs of dosing at each temperature against a similar aliquot of each fraction that had been unheated before dosing. After 24 h, 160 μM Resazurin dye was added to all cells and the change in cardiomyocyte cell viability/metabolism monitored every hour up to 5 h post dye addition. An additional measurement was recorded 24 hs after the dye had been added.
# [7] = system: Neonatal rat cardiomyocytes; experiment: Screening purified venom fractions for alterations to cardiomyocyte beat rates; type: cell-based; conditions: for Highest Achieved Fold Increases in Beat Rate: 1 h; for fold increases to beat rate: dose of 6 μg/ml
# Description: Neonatal rat cardiomyocytes were isolated as via standard protocol and seeded at a density of 100,000 cells/96 well. Once myocyte cultures were beating spontaneously in uniform sheets, they were videoed well-by-well using a microscope camera to determine pre-dose beat rates/min. […] Cells were incubated in each fraction in a humidified incubator at 37° C., 5% CO2 for 1 h. After 1 h videos of the cells were re-recorded to obtain the post-dosing beat rate/minute. Fold changes in beat frequency were calculated for each dosed well pair.
# [8] = any of the tested doses, up to 12.5 μg/ml
compound,measurement,setting,value
"O=c1oc2ccccc2c(O)c1C1CC(c2ccc(-c3ccc(Br)cc3)cc2)Cc2ccccc21 (stereo not shown) [Brodifacoum, 3-[3-(4′-bromobiphenyl-4-yl)-1,2,3,4-tetrahydronaphth-1-yl]-4-hydroxycoumarin]",time present in dog faeces after a single ingestion,[1],more than 700 days
"O=c1oc2ccccc2c(O)c1C1CC(c2ccc(-c3ccccc3)cc2)Cc2ccccc21 (stereo not shown) [Difenacoum, 3-[3-p-diphenyl-1,2,3,4-hydronaphth-1-yl]-4-hydroxycoumarin]",time present in dog faeces after a single ingestion,[1],> 650 days
"C[C@]12CC[C@@H]3c4ccc(OS(=O)(=O)O)cc4CC[C@H]3[C@@H]1CCC2=O [Estrone 3-sulfate, estrone 3-sulfate]",Mean % Recovery,[2]; A2B,68.6%
same,Papp Mean,"[2]; A2B, 120 min, pH 7.4",0.225 ×10^−6 cms^−1
same,Papp Rep 1,"[2]; A2B, 120 min, pH 7.4",0.225 ×10^−6 cms^−1
same,Mean % Recovery,[2]; B2A,85.7%
same,Papp Mean,"[2]; B2A, 120 min, pH 7.4",34.9 ×10^−6 cms^−1
same,Papp Rep 1,"[2]; B2A, 120 min, pH 7.4",33.1 ×10^−6 cms^−1
same,Papp Rep 2,"[2]; B2A, 120 min, pH 7.4",36.6 ×10^−6 cms^−1
same,ER (efflux ratio),[2]; from mean A to B and B to A data,155 ^b
N.aan_I15_R4 (LKCHKLVPPVWKTCPEGKNLCYKMFMVSTSTVPVKRGCIDVCPKDSALVKYVCCSTDKCN),toxicity to rat cardiomyocytes (in words),[3]; [8],no visibly or detectible toxicity
same,toxicity to cardiac fibroblasts (in words),[4]; [8],no visibly or detectible toxicity
same,cytotoxicity against human IPSC-derived cardiomyocytes,[5],no observable cardiomyocyte cellular toxicity
same,cytotoxicity against human IPSC-derived cardiomyocytes,[5]; listed as N.ann_I15_R4,low levels of cytotoxicity
same,reduction of cardiomyocyte toxicity after heating,"[6]; fraction heated at 100° C. vs 37° C., 24 h",~10%
same,Highest Achieved Fold Increases in Beat Rate,[7]; Dose 6 μg/ml,3.50 fold
same,fold increases to beat rate,[7],greater than 3.5 fold
N.atr_I28_R3 (LKCNKLVPLFYKTCPAGKNLCYKMFMVSNLTVPVKRGCIDVCPKSSLLVKYVCCNTDRCN),toxicity in human IPSC-derived cells compared to rodent cardiomyocytes,[5]; 3.5 μg/ml,reduction in toxicity
same,Highest Achieved Fold Increases in Beat Rate,[7]; Dose 6 μg/ml,5.35 fold
same,fold increases to beat rate,[7],greater than 5 fold
N.naj_I25_R3 (LKCNKLVPLFYKTCPAGKDLCYKMYMVATPKVPVKRGCIDVCPKSSLLVKYVCCNTDRCN),doses showing rat cardiomyocyte toxicity,[3]; neonatal rat cardiomyocytes,≥ 6 µg/mL
same,doses showing cardiac fibroblast toxicity,[4]; neonatal rat cardiac fibroblasts,12.5 µg/mL
same,thermal stability (change in cytotoxic activity after heating),"[6]; 37, 60, 80, 100° C., FIG. 4",no significant changes in the activity
same,Highest Achieved Fold Increases in Beat Rate,[7]; Dose 3.5 μg/ml,13.75 fold
same,fold increases to beat rate,[7],greater than 8.5 fold
